The METLIN SMRT retention time set (Domingo-Almenara et al. 2019)

Assay: gradient 5% acetonitrile 3 min, to 50% in 2 min, to 85% in 15 min, held 3 min, 100 µL/min
Conditions: column: Zorbax Extend-C18 2.1 x 50 mm; eluents: water / acetonitrile, 0.1% formic acid
Procedure, shortened: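 Retention times come from adduct peaks that were picked computationally and then checked by hand. The standards, pure and pooled in mixtures of ~100 molecules, were run on a Zorbax Extend-C18 column (2.1 × 50 mm, 1.8 μm) at 100 μL/min with water and acetonitrile, each with 0.1% formic acid. Detection was by quadrupole time-of-flight mass spectrometry in positive and negative ionization mode, with a dead volume of 40 μL and a dwell volume of 900 μL.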

Compound	RP-LC retention time [s]
CCOC(=O)c1nnn(C(CC)C(=O)Nc2ccc(OC)cc2)c1C(=O)OCC (configuration not stated)	814
CCc1ccc(C(O)CN2CCN(c3ccccc3)CC2)cc1 (configuration not stated)	692
O=C(CN1CCN(Cc2nc(-c3ccc(F)cc3)cs2)CC1)NCc1ccco1	595
NC(=NCc1ccc(Cl)cc1Cl)NC(=O)c1nc(Cl)c(N)nc1N	770
COc1cccc(S(=O)(=O)N2CCC3(CC2)CC(OC)CCO3)c1 (configuration not stated)	865
Cc1ccc(N2CC(c3noc(-c4ccncc4)n3)CC2=O)cc1 (configuration not stated)	798
CC(=O)Nc1ccc(C2(C(=O)O)CCC2)cc1	637
COc1ccc(OC)c(NC(=O)Cn2c(C(F)(F)F)nc3cc4c(cc32)OCCO4)c1	881
Cc1cc(C(=O)Nc2ccc(Cl)cn2)c2ccccc2n1	694
O=C(c1ccncc1)N1CCC2(CC1)N=C(c1ccccc1)NO2	611
O=C(c1ccsc1)N1CCC(N(C(=O)Cc2ccccc2)C2CCOCC2)CC1	774
COCc1cc(=O)n(Cc2ccccc2F)c(N2CCCC2)n1	790
CCn1cc(S(=O)(=O)N2CC3(CCCCC3)CC2COc2ccc(OC)cc2)cn1 (configuration not stated)	1090
COCCN1C(=O)c2cc(-c3ccc(OC)cc3)nn2CC1(C)C(=O)NCc1ccccc1OC (configuration not stated)	853
CCC(C)C(=O)NCCc1c[nH]c2cc(OC)ccc12 (configuration not stated)	728
CCn1cnc(S(=O)(=O)N2CCC(C(=O)Nc3ccc4c(c3)OCCO4)CC2)c1	681
Cc1ccc(C(=O)N2CC=C(C(=O)NC3CC3)CC2)cc1	847
COc1ccc(-c2nc(C3CC(=O)N(c4ccc(C)cc4)C3)no2)c(OC)n1 (configuration not stated)	1040
Cc1cc2cc(CNC(=O)C(C)Oc3ccccc3)ccc2[nH]1 (configuration not stated)	792
O=c1n(CCOc2ccccc2)nc2ccc(S(=O)(=O)N3CCOCC3)cn12	792
COc1ccc(-c2ccc(C(=O)N3CCCc4ccccc43)o2)c([N+](=O)[O-])c1	976
COc1ccc(-n2c(=O)n(C)c(=O)c3cc(C(=O)Nc4ccc(C)cc4F)cnc32)cc1	849
Cc1ccc(-n2cc3c(c(C(=O)N4CCCC4)c2=O)CC(C)(C)CC3=O)cc1	758

Compound	RP-LC retention time [s]
COC(=O)c1cc(-c2c[nH]cc2C(=O)OCc2ccccc2)cn1S(=O)(=O)c1ccc(C)cc1	1060
O=C(CN1CCC2(CC1)N=C(c1ccc(Cl)cc1)C(=O)N2)Nc1ccc2c(c1)OCCO2	670
COc1ccc(-c2noc(Cn3cnc4c(cnn4-c4ccc(Cl)cc4)c3=O)n2)cc1	1120
CCN1C(=O)c2cccnc2Sc2cc(NC(=O)Cc3ccc(C)cc3)ccc21	855
COc1ccc2[nH]c3c(c2c1)CCN(C(=O)CC(C)C)C31C(=O)N(C)c2ccccc21 (configuration not stated)	888
CN(CC1CCOC1)C(=O)Cc1ccc(Cl)cc1 (configuration not stated)	741
CCOc1ccc(NC(=O)c2cc3c(=O)n(CC)ccc3n2C)cc1	757
COCCc1nnc(NC(=O)C2c3ccccc3Oc3ccccc32)o1	718
CC(=O)N(CCC1(C(C)C)CCOC(C)(C)C1)Cc1ccccc1 (configuration not stated)	1000
O=S(=O)(c1cc(Cl)ccc1Cl)N1CCc2nc(-c3ccccc3)ncc2C1	1180
COc1ccc(-c2cc3nn(CC(=O)Nc4cccc(Cl)c4)c(=O)n3c(C)n2)cc1	979
Cc1oc2ncnc(N3CCCC(C(=O)Nc4cccc(Cl)c4)C3)c2c1C (configuration not stated)	1050
COc1ccccc1NC(=O)c1cnc(-c2ccccc2)nc1-c1ccncc1	887
Cc1ccc(CN2CCCN(c3ncccc3-c3nc(C(C)C)no3)CC2)cc1	746
O=C(NC1CCN(c2cc(-c3ccc(Cl)cc3)[nH]n2)C1)c1ccccc1Br (configuration not stated)	787
Cc1nn(-c2ccc(N3CCCCC3)nn2)c(C)c1CCC(=O)N1CCN(c2ccccn2)CC1	594
CCOc1ccc(/C=C2\CCc3ccccc3C2=O)cc1	1290
CCCCOc1ccc(C(=O)Nc2cc(OC)ccc2OC)cc1	1110
COCCOCc1nc(C2CCN(S(=O)(=O)c3cccc4nsnc34)C2)no1 (configuration not stated)	769
CN1C(=O)c2cc(C(=O)NCCCc3ccccc3)nn2CC1(C)C(=O)NC1CCCC1 (configuration not stated)	826
Cc1noc(CN2CCN(C3CCN(Cc4ccc(C(F)(F)F)cc4)C3)C2=O)n1 (configuration not stated)	645
Cc1sc(-c2nnc(C3CC3)o2)cc1NC(=O)Cc1ccccc1F	944
CCC(C(=O)N1CCN(C)CC1)n1c2ccccc2c2cnn(C)c(=O)c21 (configuration not stated)	627

Compound	RP-LC retention time [s]
CC(C)(C)NC(=O)CSc1nc(-c2cccs2)cc(C(F)(F)F)c1C#N	991
Fc1ccc(-c2nc(-c3cn(-c4ccccc4)nn3)no2)cc1	607
O=C(Nc1nccnc1C(=O)NCc1cccnc1)c1ccccc1	584
Cn1nc(-c2nc(-c3ccccc3)no2)c2c1CCN(C(=O)NC(C)(C)C)C2	780
COc1ccc(-n2nnc(C(=O)N3CCOCC3)c2C)cc1Cl	684
COc1ccc(CN2C=C(C(=O)OCc3noc(-c4ccc(C)cc4)n3)C(C)=NS2(=O)=O)cc1	1170
CCCn1nnc2cc(S(=O)(=O)N3CCCC(C(=O)N4CCN(c5ccccn5)CC4)C3)ccc21 (configuration not stated)	652
CCN1CCCCc2cc(C(=O)NCC(N)=O)sc21	679
O=c1n(Cc2cc(F)cc(F)c2)nc2ccc(S(=O)(=O)N3CCOCC3)cn12	816
Cc1ccc(C2(O)C(=O)N(CC(=O)Nc3ccccc3F)c3ccccc32)cc1 (configuration not stated)	664
CCN(CC)c1nc(C(=O)NCc2ccncc2)nc2nc(C)cc(C)c12	511
CCN1C(=O)CN(C(=O)C2CCCCC2)CC12CCOCC2	654
CN(CCc1noc(-c2ccc(F)cc2)n1)C(=O)Nc1ccc(F)cc1F	874
COCCNC(=O)c1cc(C)nc2ccc(Br)cc12	636
Cc1ccc(-c2nc3ncccn3c2Nc2cc(C)ccc2C)cc1	825
Clc1cccc(-c2nc(-c3ccc(-n4ccnc4)nc3)no2)c1	815
COC(=O)c1c(C)[nH]c(C(=O)N2CCC(CC(=O)N3CCCC3)CC2)c1C	628
COc1ccc(CCNC(=O)CSc2nnc(NC(=O)CC(C)C)s2)cc1OC	700
O=C(CC1CCN(C(=O)c2ccc3oc(C4CC4)nc3c2)CC1)N1CCN(c2ccccn2)CC1	602
Cn1c(=O)oc2cc(-c3noc(-c4ccc(CS(=O)(=O)c5ccccc5)cc4)n3)ccc21	959
COc1cc(OC)c(NC(=O)NCC(c2cccnc2)c2cn(C)c3ccccc23)cc1Cl (configuration not stated)	741
